Data from the supplement of paper PMC7600603.

Experiments:
[1] = test system: DLD1 NRF2-WT; assay: TC50 cytotoxicity; higher = less toxic; conditions: 72 h; CellTox Green cytotoxicity
Summary of the method: (§1)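 Isogenic DLD1 colorectal cancer cells, either NRF2 wild-type or CRISPR gain-of-function, were grown in DMEM with 10% FBS. They were exposed in 384-well plates to library compounds at 5 concentrations spanning a 10,000-fold range. After 72 h, cytotoxicity was read by CellTox Green on a Pherastar FS reader and normalised to vehicle wells and 100-μM positive-control wells. TC50 and drug sensitivity score (a normalised area under the curve) came from logistic dose-response fits.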

[2] = test system: DLD1 NRF2-GOF; assay: TC50 cytotoxicity; higher = less toxic; conditions: 72 h; CellTox Green cytotoxicity
Summary of the method: as §1

[3] = test system: DLD1 NRF2-WT; assay: drug sensitivity score (DSS) viability (DSS score); higher = more sensitive; extreme values may be limits of the assay; conditions: 72 h; CellTiter-Glo viability
Summary of the method: (§2)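 In 384-well plates, library compounds were applied at 5 concentrations spanning a 10,000-fold range to isogenic DLD1 colorectal cancer cells, NRF2 wild-type or CRISPR gain-of-function, maintained in DMEM with 10% FBS. A Pherastar FS reader recorded CellTiter-Glo signal at 72 h, with normalisation to vehicle wells and 100-μM positive-control wells. Curves were fitted with a four-parameter logistic model. EC50 and drug sensitivity score, a normalised area under the curve, came from those curves.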

[4] = test system: DLD1 NRF2-GOF; assay: as above; conditions: 72 h; CellTiter-Glo viability
Summary of the method: as §2

[5] = test system: DLD1 NRF2-WT; conditions: 72 h; CellTiter-Glo viability
Summary of the method: as §2

[6] = test system: DLD1 NRF2-GOF; conditions: 72 h; CellTiter-Glo viability
Summary of the method: as §2

[7] = test system: DLD1 NRF2-WT; assay: drug sensitivity score (DSS) cytotoxicity (DSS score); higher = more toxic; extreme values may be limits of the assay; conditions: 72 h; CellTox Green cytotoxicity
Summary of the method: as §1

[8] = test system: DLD1 NRF2-GOF; assay: as above; conditions: 72 h; CellTox Green cytotoxicity
Summary of the method: as §1

SMILES | TC50 cytotoxicity [1] | TC50 cytotoxicity [2] | drug sensitivity score [3] | drug sensitivity score [4] | EC50 viability [5] | EC50 viability [6] | drug sensitivity score [7] | drug sensitivity score [8]
CC(C)(C)C[C@@H]1N[C@@H](C(=O)N[C@H]2CC[C@H](O)CC2)[C@H](c2cccc(Cl)c2F)[C@]12C(=O)Nc1cc(Cl)ccc12 | > 10000 nM | > 10000 nM | 4.4 | 1.5 | 1930 nM | 3610 nM | 0 | 0
CCNC(=O)C[C@@H]1N=C(c2ccc(Cl)cc2)c2cc(OC)ccc2-n2c(C)nnc21 | > 10000 nM | > 10000 nM | 5.2 | 0.1 | 1090 nM | > 10000 nM | 0 | 0
CC[C@@H]1[C@H](F)C(=O)N[C@@H]1COc1nccc2cc(C(N)=O)c(OC)cc12 | > 10000 nM | > 10000 nM | 0.5 | 2.4 | > 10000 nM | > 10000 nM | 0 | 0
CCc1cncnc1N1CCN(Cc2nc3cc(C(F)(F)F)ccc3[nH]2)CC1 | > 10000 nM | > 10000 nM | 4.6 | 3 | 1510 nM | 1530 nM | 0 | 0
CCn1c(-c2nonc2N)nc2c(C#CC(C)(C)O)ncc(OC[C@H]3CCCNC3)c21 | > 10000 nM | > 10000 nM | 4.3 | 2.4 | 1500 nM | 2870 nM | 0 | 0
CCn1c(-c2nonc2N)nc2cnc(Oc3cccc(NC(=O)c4ccc(OCCN5CCOCC5)cc4)c3)cc21 | > 10000 nM | 1550 nM | 5.4 | 6.3 | 1990 nM | 2300 nM | 1.2 | 6.1
CCn1c(C(=O)N(C2CC2)C2CC2)cc2c3c(ncn3C)c(Nc3cc(C)n(C)n3)nc21 | > 10000 nM | > 10000 nM | 7.2 | 7.1 | 218 nM | 1170 nM | 0 | 0
CCn1cc(-c2ccnc3[nH]c(-c4cccc(CN(C)C)c4)cc23)c(-c2ccc(NC(=O)N(C)C)cc2)n1 | > 1000 nM | > 1000 nM | 2.8 | 4.4 | 172 nM | 45.2 nM | 0 | 1.6
CN(c1ncccc1CNc1nc(Nc2ccc3c(c2)CC(=O)N3)ncc1C(F)(F)F)S(C)(=O)=O | > 10000 nM | > 10000 nM | 6.7 | 4.1 | 2290 nM | 3700 nM | 0 | 0
CN1CCN(C2CCC(n3cc(-c4ccc(Oc5ccccc5)cc4)c4c(N)ncnc43)CC2)CC1 (stereo not drawn) | 3230 nM | 3090 nM | 8.8 | 5.4 | 1710 nM | 3270 nM | 4.5 | 5.3
CNC(=O)c1ccc(C)c(-n2c(C)cc(OCc3ccc(F)cc3F)c(Br)c2=O)c1 | > 1000 nM | > 1000 nM | 1.3 | 0 | > 1000 nM | > 1000 nM | 0 | 0
CNC(=O)c1ccccc1Nc1nc(Nc2ccc3c(c2OC)CCC[C@H](N2CCN(CCO)CC2)C3)ncc1Cl | 1210 nM |  | 9.2 | 9.3 | 610 nM | 450 nM | 3 | 1.8
CNc1ncc2cc(-c3cc(NC(=O)NCCC(C)(C)C)c(F)cc3C)c(C)nc2n1 | > 10000 nM | > 10000 nM | 9.9 | 6.4 | 496 nM | 718 nM | 0 | 0
CO[C@@H](C)Cn1c(=O)n(C)c2cnc3ccc(-c4cncc(C(C)(C)O)c4)cc3c21 | > 2500 nM | > 2500 nM | 10.5 | 9.5 | 171 nM | 194 nM | 0 | 0
C[C@@H](Oc1ccc2[nH]nc(/C=C/c3cnn(CCO)c3)c2c1)c1c(Cl)cncc1Cl | > 1000 nM | > 1000 nM | 1.4 | 2 | > 1000 nM | > 1000 nM | 0 | 0
C[C@@]1(C(=O)Nc2ccc(F)nc2)CCCN1c1nc(Nc2cc(C3CC3)n[nH]2)c2cccn2n1 | 326 nM | 319 nM | 13 | 14.8 | 252 nM | 279 nM | 6.3 | 11
C[C@H]1Oc2cc(cnc2N)-c2c(nn(C)c2C#N)CN(C)C(=O)c2ccc(F)cc21 | > 1000 nM | > 1000 nM | 0 | 1.6 | > 1000 nM | > 1000 nM | 0 | 0
Cc1ncc(Cl)cc1NCc1ccc(C(=O)N[C@@H](CC2CCCC2)C(=O)NC2CC2)s1 | > 5000 nM | > 5000 nM | 4 | 0 | 401 nM | > 5000 nM | 0 | 0
Cn1cc(-c2[nH]c3cc(NC(=O)[C@H](N)C4CCCCC4)cc4c3c2C=NNC4=O)cn1 | > 10000 nM |  | 9 | 8.8 | 878 nM | 812 nM | 1 | 2.7
NC[C@@](O)(c1ccc(Cl)cc1)c1ccc(-c2cn[nH]c2)cc1 | > 10000 nM | > 10000 nM | 10.8 | 10.6 | 1 nM | 435 nM | 0 | 0
O=C(NC[C@H](O)CN1CCc2ccccc2C1)c1cc(NC2COC2)ncn1 | > 10000 nM | > 10000 nM | 3 | 2.4 | > 10000 nM | > 10000 nM | 0 | 0

SMILES | TC50 cytotoxicity [1] | TC50 cytotoxicity [2] | drug sensitivity score [3] | drug sensitivity score [4] | EC50 viability [5] | EC50 viability [6] | drug sensitivity score [7] | drug sensitivity score [8]
O=C(NCc1ccncc1)C12CC3CC(C1)CC(c1ccc(Cl)cc1)(C3)C2 | > 50000 nM | > 50000 nM | 8.7 | 9 | 5140 nM | 4090 nM | 0 | 0.3
O=C(O)c1ccc(-c2c[nH]c3ncc(-c4ccccc4)cc23)cc1C1CCCC1 | > 10000 nM | 3470 nM | 12.1 | 6.6 | 38.1 nM | 908 nM | 0.4 | 2
COC12C(COC(N)=O)C3=C(C(=O)C(C)=C(N)C3=O)N1CC1NC12 (stereo in doubt) [Mitomycin C] | > 10000 nM | > 10000 nM | 0 | 4 | > 10000 nM | 1700 nM | 0 | 0
Cn1cc(C[C@@H](N)C(=O)O)c2ccccc21 [1-methyl-D-tryptophan] | > 5000 nM | > 5000 nM | 2.3 | 3.2 | 874 nM | 552 nM | 0 | 0
Nc1ncnc2c1nc(N)n2[C@@H]1O[C@H](CO)[C@@H](O)[C@H]1O [8-amino-adenosine] | 4710 nM | 5200 nM | 20 | 18.2 | 1070 nM | 1500 nM | 11.8 | 11.2
Nc1ncnc2c1nc(Cl)n2[C@@H]1O[C@H](CO)[C@@H](O)[C@H]1O [8-chloro-adenosine] | > 50000 nM | > 50000 nM | 16.6 | 15.2 | 1150 nM | 1310 nM | 0 | 0.2
COc1cc2c(cc1OCCCN1CCCC1)N=C(N)C21CCC1 [A-366] | > 25000 nM | > 25000 nM | 0 | 0 | > 25000 nM | > 25000 nM | 0 | 0
COCCOc1cnc2ccn([C@H](C)c3nnc4c(F)cc(-c5cnn(C)c5)cn34)c(=O)c2c1 [AMG-337] | > 10000 nM | > 10000 nM | 4.2 | 6.6 | 543 nM | 270 nM | 0 | 0
COCC1(CO)C(=O)C2CCN1CC2 (stereo not drawn) [APR-246] | > 10000 nM | > 10000 nM | 4.5 | 0 | > 10000 nM | > 10000 nM | 0 | 0
CC(C)[C@H](C(=O)Nc1ccc(C(=O)NO)cc1)c1ccccc1 [AR-42] | 1970 nM | > 10000 nM | 9.4 | 5.7 | 1260 nM | 1730 nM | 4 | 0
Cc1sc2c(c1C)C(c1ccc(Cl)cc1)=N[C@@H](CC(=O)Nc1ccc(OCCOCCOCCOCCNc3cccc4c3C(=O)N(C3CCC(=O)NC3=O)C4=O)cc1)c1nnc(C)n1-2 (stereo partly drawn) [ARV-825] |  | > 300 nM | 9.1 | 5 | 12.9 nM | 36.5 nM | 4 | 1.1
CO[C@H]1C(=O)[C@]2(C)[C@@H](OC)C[C@H]3OC[C@@]3(OC(C)=O)[C@H]2[C@H](OC(=O)c2ccccc2)[C@]2(O)C[C@H](OC(=O)[C@H](O)[C@@H](NC(=O)OC(C)(C)C)c3ccccc3)C(C)=C1C2(C)C [Cabazitaxel] |  | > 1000 nM | 27.1 | 25.7 | 1.5 nM | 1.6 nM | 6.6 | 0.3
Cc1c2oc3c(C)ccc(C(=O)N[C@@H]4C(=O)N[C@H](C(C)C)C(=O)N5CCC[C@H]5C(=O)N(C)CC(=O)N(C)[C@@H](C(C)C)C(=O)O[C@@H]4C)c3nc-2c(C(=O)N[C@@H]2C(=O)N[C@H](C(C)C)C(=O)N3CCC[C@H]3C(=O)N(C)CC(=O)N(C)[C@@H](C(C)C)C(=O)O[C@@H]2C)c(N)c1=O [Dactinomycin] |  | > 1000 nM | 24.8 | 31.3 | 6.7 nM | 1.3 nM | 1.4 | 0
Cc1cc(Nc2cc(N3CCN(C)CC3)nc(/C=C/c3ccccc3)n2)n[nH]1 [ENMD-2076] | > 10000 nM |  | 11.4 | 11.3 | 576 nM | 638 nM | 1.4 | 4.4
COc1cc([C@@H]2c3cc4c(cc3[C@@H](O[C@@H]3O[C@@H]5CO[C@@H](C)O[C@H]5[C@H](O)[C@H]3O)[C@H]3COC(=O)[C@H]23)OCO4)cc(OC)c1O [Etoposide] |  | > 10000 nM | 8.5 | 6.3 | 1090 nM | 936 nM | 2.7 | 1.8
COc1cc(OC)c(/C=C/S(=O)(=O)Cc2ccc(OC)c(NCC(=O)O)c2)c(OC)c1 [Rigosertib] |  | 190 nM | 21 | 19 | 106 nM | 107 nM | 5.9 | 9.4
CCc1c2c(nc3ccc(O)cc13)-c1cc3c(c(=O)n1C2)COC(=O)[C@]3(O)CC [SN-38] | 1670 nM |  | 12.7 | 17.5 | 337 nM | 158 nM | 2.3 | 2
Cc1cc(Nc2cc(N3CCN(C)CC3)nc(Sc3ccc(NC(=O)C4CC4)cc3)n2)n[nH]1 [Tozasertib] |  | 31.1 nM | 14.2 | 15.9 | 155 nM | 99.2 nM | 5.7 | 11.6
CN[C@@H]1C[C@H]2O[C@@](C)([C@@H]1OC)n1c3ccccc3c3c4c(c5c6ccccc6n2c5c31)C(=O)N[C@H]4O [UCN-01] | 302 nM |  | 16.4 | 12.6 | 344 nM | 578 nM | 10.4 | 5
CC[C@]1(O)C[C@H]2CN(CCc3c([nH]c4ccccc34)[C@@](C(=O)OC)(c3cc4c(cc3OC)N(C=O)[C@H]3[C@@](O)(C(=O)OC)[C@H](OC(C)=O)[C@]5(CC)C=CCN6CC[C@]43[C@@H]65)C2)C1 [Vincristine] |  | > 1000 nM | 22.4 | 22.8 | 6.3 nM | 4.9 nM | 6.8 | 5.5
CC[C@]12C=CCN3CC[C@@]4(c5cc([C@@]6(C(=O)OC)C[C@@H]7C[C@@H](C(C)(F)F)CN(Cc8c6[nH]c6ccccc86)C7)c(OC)cc5N(C)[C@H]4[C@@](O)(C(=O)OC)[C@@H]1OC(C)=O)[C@@H]32 [Vinflunine] | > 1000 nM |  | 7 | 6.9 | 143 nM | 162 nM | 1.3 | 1
